According to the supplement of paper PMC6045584:
± gives the standard deviation of the averaged measurements.

Experiments:
SNX-5422 = compound: CC1(C)CC(=O)c2c(C(F)(F)F)nn(-c3ccc(C(N)=O)c(N[C@H]4CC[C@H](OC(=O)CN)CC4)c3)c2C1 [SNX-5422]; assay: surviving fraction relative to DMSO-only wells; higher = less growth inhibition; conditions: exposure time: 5 days
How it was run: (§1)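 In 384-well plates, 250–500 log-phase tumour cells per well were given 24 hours before five days of continuous exposure to inhibitors at 0.5, 1, 5, 10, 50, 100, 500 and 1000 nM. Surviving fraction is luminescence from CellTiter-Glo, normalised to the median of wells containing DMSO alone. Reading took place after 10 minutes at room temperature.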

SAPACITABINE = compound: CCCCCCCCCCCCCCCC(=O)Nc1ccn([C@@H]2O[C@H](CO)[C@@H](O)[C@@H]2C#N)c(=O)n1 [SAPACITABINE]; assay: as above; conditions: exposure time: 5 days
How it was run: as §1

CASKI CERVIX
surviving fraction (SNX-5422; 0.5 nM): 0.913 ± 0.016 | surviving fraction (SNX-5422; 1 nM): 0.937 ± 0.021 | surviving fraction (SNX-5422; 5 nM): 0.932 ± 0.049 | surviving fraction (SNX-5422; 10 nM): 0.829 ± 0.074 | surviving fraction (SNX-5422; 50 nM): 0.119 ± 0.02 | surviving fraction (SNX-5422; 100 nM): 0.0603 ± 0.0035 | surviving fraction (SNX-5422; 500 nM): 0.031 ± 0.0036 | surviving fraction (SNX-5422; 1000 nM): 0.033 | surviving fraction (SAPACITABINE; 0.5 nM): 0.804 ± 0.055 | surviving fraction (SAPACITABINE; 1 nM): 0.843 ± 0.048 | surviving fraction (SAPACITABINE; 5 nM): 0.795 ± 0.026 | surviving fraction (SAPACITABINE; 10 nM): 0.746 ± 0.04 | surviving fraction (SAPACITABINE; 50 nM): 1.02 ± 0.053 | surviving fraction (SAPACITABINE; 100 nM): 0.936 ± 0.036 | surviving fraction (SAPACITABINE; 500 nM): 0.45 ± 0.019 | surviving fraction (SAPACITABINE; 1000 nM): 0.268 ± 0.0036

HSSYII SYNOVIAL
surviving fraction (SNX-5422; 0.5 nM): 0.976 ± 0.035 | surviving fraction (SNX-5422; 1 nM): 0.979 ± 0.042 | surviving fraction (SNX-5422; 5 nM): 1.09 ± 0.04 | surviving fraction (SNX-5422; 10 nM): 0.977 ± 0.0066 | surviving fraction (SNX-5422; 50 nM): 0.23 ± 0.015 | surviving fraction (SNX-5422; 100 nM): 0.152 ± 0.0056 | surviving fraction (SNX-5422; 500 nM): 0.0738 ± 0.003 | surviving fraction (SNX-5422; 1000 nM): 0.0662 ± 0.0051 | surviving fraction (SAPACITABINE; 0.5 nM): 0.797 ± 0.015 | surviving fraction (SAPACITABINE; 1 nM): 0.636 ± 0.061 | surviving fraction (SAPACITABINE; 5 nM): 0.726 ± 0.032 | surviving fraction (SAPACITABINE; 10 nM): 0.132 ± 0.022 | surviving fraction (SAPACITABINE; 50 nM): 0.537 ± 0.033 | surviving fraction (SAPACITABINE; 100 nM): 0.315 ± 0.005 | surviving fraction (SAPACITABINE; 500 nM): 0.123 ± 0.0085 | surviving fraction (SAPACITABINE; 1000 nM): 0.0603 ± 0.0046

HCC78 LUNG
surviving fraction (SNX-5422; 0.5 nM): 0.808 ± 0.27 | surviving fraction (SNX-5422; 1 nM): 1.2 ± 0.38 | surviving fraction (SNX-5422; 5 nM): 1.03 ± 0.17 | surviving fraction (SNX-5422; 10 nM): 1 ± 0.079 | surviving fraction (SNX-5422; 50 nM): 0.0547 ± 0.01 | surviving fraction (SNX-5422; 100 nM): 0.113 ± 0.049 | surviving fraction (SNX-5422; 500 nM): 0.0627 ± 0.016 | surviving fraction (SNX-5422; 1000 nM): 0.088 ± 0.007 | surviving fraction (SAPACITABINE; 0.5 nM): 0.831 ± 0.058 | surviving fraction (SAPACITABINE; 1 nM): 0.916 ± 0.25 | surviving fraction (SAPACITABINE; 5 nM): 0.913 ± 0.038 | surviving fraction (SAPACITABINE; 10 nM): 0.354 ± 0.035 | surviving fraction (SAPACITABINE; 50 nM): 0.445 ± 0.095 | surviving fraction (SAPACITABINE; 100 nM): 0.123 ± 0.052 | surviving fraction (SAPACITABINE; 500 nM): 0.039 ± 0.0087 | surviving fraction (SAPACITABINE; 1000 nM): 0.0357 ± 0.0059

HCC1806 BREAST
surviving fraction (SNX-5422; 0.5 nM): 1.15 ± 0.15 | surviving fraction (SNX-5422; 1 nM): 1.04 ± 0.064 | surviving fraction (SNX-5422; 5 nM): 1.12 ± 0.012 | surviving fraction (SNX-5422; 10 nM): 1.07 ± 0.07 | surviving fraction (SNX-5422; 50 nM): 0.05 ± 0.0085 | surviving fraction (SNX-5422; 100 nM): 0.03 ± 0.001 | surviving fraction (SNX-5422; 500 nM): 0.029 | surviving fraction (SNX-5422; 1000 nM): 0.035 ± 0.001 | surviving fraction (SAPACITABINE; 0.5 nM): 0.698 ± 0.06 | surviving fraction (SAPACITABINE; 1 nM): 0.673 ± 0.062 | surviving fraction (SAPACITABINE; 5 nM): 0.652 ± 0.048 | surviving fraction (SAPACITABINE; 10 nM): 0.462 ± 0.067 | surviving fraction (SAPACITABINE; 50 nM): 0.259 ± 0.028 | surviving fraction (SAPACITABINE; 100 nM): 0.167 ± 0.0089 | surviving fraction (SAPACITABINE; 500 nM): 0.0637 ± 0.0081 | surviving fraction (SAPACITABINE; 1000 nM): 0.061 ± 0.007

U2OS BONE
surviving fraction (SNX-5422; 0.5 nM): 1.04 ± 0.019 | surviving fraction (SNX-5422; 1 nM): 1.06 ± 0.04 | surviving fraction (SNX-5422; 5 nM): 1.08 ± 0.015 | surviving fraction (SNX-5422; 10 nM): 1.06 ± 0.041 | surviving fraction (SNX-5422; 50 nM): 0.644 ± 0.018 | surviving fraction (SNX-5422; 100 nM): 0.257 ± 0.021 | surviving fraction (SNX-5422; 500 nM): 0.066 ± 0.0035 | surviving fraction (SNX-5422; 1000 nM): 0.0757 ± 0.0023 | surviving fraction (SAPACITABINE; 0.5 nM): 0.921 ± 0.066 | surviving fraction (SAPACITABINE; 1 nM): 0.938 ± 0.06 | surviving fraction (SAPACITABINE; 5 nM): 0.946 ± 0.035 | surviving fraction (SAPACITABINE; 10 nM): 0.936 ± 0.067 | surviving fraction (SAPACITABINE; 50 nM): 0.939 ± 0.016 | surviving fraction (SAPACITABINE; 100 nM): 0.83 ± 0.036 | surviving fraction (SAPACITABINE; 500 nM): 0.729 ± 0.019 | surviving fraction (SAPACITABINE; 1000 nM): 0.66 ± 0.032

MDAMB361 BREAST
surviving fraction (SNX-5422; 0.5 nM): 0.884 ± 0.064 | surviving fraction (SNX-5422; 1 nM): 0.974 ± 0.14 | surviving fraction (SNX-5422; 5 nM): 0.76 ± 0.043 | surviving fraction (SNX-5422; 10 nM): 0.816 ± 0.037 | surviving fraction (SNX-5422; 50 nM): 0.443 ± 0.025 | surviving fraction (SNX-5422; 100 nM): 0.879 ± 0.2 | surviving fraction (SNX-5422; 500 nM): 0.307 ± 0.0076 | surviving fraction (SNX-5422; 1000 nM): 0.294 ± 0.015 | surviving fraction (SAPACITABINE; 0.5 nM): 0.711 ± 0.096 | surviving fraction (SAPACITABINE; 1 nM): 0.624 ± 0.029 | surviving fraction (SAPACITABINE; 5 nM): 0.662 ± 0.06 | surviving fraction (SAPACITABINE; 10 nM): 0.648 ± 0.069 | surviving fraction (SAPACITABINE; 50 nM): 0.868 ± 0.097 | surviving fraction (SAPACITABINE; 100 nM): 0.771 ± 0.1 | surviving fraction (SAPACITABINE; 500 nM): 0.908 ± 0.093 | surviving fraction (SAPACITABINE; 1000 nM): 0.872 ± 0.041

LNCAP PROSTATE
surviving fraction (SNX-5422; 0.5 nM): 0.905 ± 0.09 | surviving fraction (SNX-5422; 1 nM): 0.969 ± 0.13 | surviving fraction (SNX-5422; 5 nM): 0.79 ± 0.043 | surviving fraction (SNX-5422; 10 nM): 0.774 ± 0.12 | surviving fraction (SNX-5422; 50 nM): 0.19 ± 0.022 | surviving fraction (SNX-5422; 100 nM): 0.124 ± 0.0057 | surviving fraction (SNX-5422; 500 nM): 0.05 ± 0.004 | surviving fraction (SNX-5422; 1000 nM): 0.06 ± 0.0072 | surviving fraction (SAPACITABINE; 0.5 nM): 1.04 ± 0.033 | surviving fraction (SAPACITABINE; 1 nM): 1.09 ± 0.059 | surviving fraction (SAPACITABINE; 5 nM): 0.998 ± 0.053 | surviving fraction (SAPACITABINE; 10 nM): 0.913 ± 0.031 | surviving fraction (SAPACITABINE; 50 nM): 0.51 ± 0.012 | surviving fraction (SAPACITABINE; 100 nM): 0.329 ± 0.035 | surviving fraction (SAPACITABINE; 500 nM): 0.208 ± 0.014 | surviving fraction (SAPACITABINE; 1000 nM): 0.159 ± 0.012

SUM44 BREAST
surviving fraction (SNX-5422; 0.5 nM): 1.02 ± 0.035 | surviving fraction (SNX-5422; 1 nM): 0.987 ± 0.043 | surviving fraction (SNX-5422; 5 nM): 0.974 ± 0.013 | surviving fraction (SNX-5422; 10 nM): 0.867 ± 0.024 | surviving fraction (SNX-5422; 50 nM): 0.604 ± 0.015 | surviving fraction (SNX-5422; 100 nM): 0.589 ± 0.04 | surviving fraction (SNX-5422; 500 nM): 0.495 ± 0.041 | surviving fraction (SNX-5422; 1000 nM): 0.471 ± 0.048 | surviving fraction (SAPACITABINE; 0.5 nM): 0.781 ± 0.19 | surviving fraction (SAPACITABINE; 1 nM): 0.773 ± 0.18 | surviving fraction (SAPACITABINE; 5 nM): 0.823 ± 0.14 | surviving fraction (SAPACITABINE; 10 nM): 0.827 ± 0.1 | surviving fraction (SAPACITABINE; 50 nM): 0.902 ± 0.12 | surviving fraction (SAPACITABINE; 100 nM): 0.686 ± 0.13 | surviving fraction (SAPACITABINE; 500 nM): 0.68 ± 0.093 | surviving fraction (SAPACITABINE; 1000 nM): 0.611 ± 0.07

HOS BONE
surviving fraction (SNX-5422; 0.5 nM): 1.01 ± 0.015 | surviving fraction (SNX-5422; 1 nM): 1.04 ± 0.039 | surviving fraction (SNX-5422; 5 nM): 1.08 ± 0.016 | surviving fraction (SNX-5422; 10 nM): 1.04 ± 0.031 | surviving fraction (SNX-5422; 50 nM): 0.028 ± 0.001 | surviving fraction (SNX-5422; 100 nM): 0.051 ± 0.0078 | surviving fraction (SNX-5422; 500 nM): 0.0377 ± 0.0011 | surviving fraction (SNX-5422; 1000 nM): 0.0417 ± 0.0021 | surviving fraction (SAPACITABINE; 0.5 nM): 0.899 ± 0.01 | surviving fraction (SAPACITABINE; 1 nM): 0.912 ± 0.0076 | surviving fraction (SAPACITABINE; 5 nM): 0.927 ± 0.018 | surviving fraction (SAPACITABINE; 10 nM): 0.911 ± 0.024 | surviving fraction (SAPACITABINE; 50 nM): 0.975 ± 0.041 | surviving fraction (SAPACITABINE; 100 nM): 0.831 ± 0.026 | surviving fraction (SAPACITABINE; 500 nM): 0.209 ± 0.035 | surviving fraction (SAPACITABINE; 1000 nM): 0.224 ± 0.007

SAOS2 BONE
surviving fraction (SNX-5422; 0.5 nM): 1.15 ± 0.034 | surviving fraction (SNX-5422; 1 nM): 1.14 ± 0.075 | surviving fraction (SNX-5422; 5 nM): 1.16 ± 0.029 | surviving fraction (SNX-5422; 10 nM): 1.15 ± 0.027 | surviving fraction (SNX-5422; 50 nM): 0.123 ± 0.015 | surviving fraction (SNX-5422; 100 nM): 0.0737 ± 0.0011 | surviving fraction (SNX-5422; 500 nM): 0.076 | surviving fraction (SNX-5422; 1000 nM): 0.0853 ± 0.0029 | surviving fraction (SAPACITABINE; 0.5 nM): 0.806 ± 0.032 | surviving fraction (SAPACITABINE; 1 nM): 0.811 ± 0.019 | surviving fraction (SAPACITABINE; 5 nM): 0.875 ± 0.029 | surviving fraction (SAPACITABINE; 10 nM): 0.779 ± 0.057 | surviving fraction (SAPACITABINE; 50 nM): 0.776 ± 0.013 | surviving fraction (SAPACITABINE; 100 nM): 0.566 ± 0.071 | surviving fraction (SAPACITABINE; 500 nM): 0.199 ± 0.018 | surviving fraction (SAPACITABINE; 1000 nM): 0.153 ± 0.017
